Experimental data from US12060387B2, “Polypeptide-based shuttle agents for improving the transduction efficiency of polypeptide cargos to the cytosol of target eukaryotic cells, uses thereof, methods and kits relating to same” (priority 2015, dated 2024).
Read-outs that look alike come from different tables or passages of the source. Where no end group is shown, it is not given here.

Tests used:
THP-1 cells [1] = experiment: Total RNA levels (ng/μL) as a marker for cell viability; assay type: cell-based, human
Procedure: (§1) Control and treated cells are transferred to separate sterile 1.5-mL tubes and centrifuged for 5 minutes at 300 g. The cell pellets are resuspended in appropriate buffer to lyse the cells. RNAase-free 70% ethanol is then added followed by mixing by pipetting. The lysates are transferred to an RNeasy™ Mini spin column and centrifuged 30 seconds at 13000 RPM. After several washes with appropriate buffers and centrifugation steps, the eluates are collected in sterile 1.5-mL tubes on ice, and the RNA quantity in each tube is then quantified with a spectrophotometer. For DNase treatment, 2 μg of RNA is diluted in 15 μL of RNase-free water. 1.75 μL of 10× DNase buffer and 0.75 μL of DNase is then added, followed by incubation at 37° C. for 15 minutes. For reverse transcriptase treatment, 0.88 μL of EDTA ([…]) is added, followed by incubation at 75° C. for 5 minutes. In a PCR tube, 0.5 μg of DNase-treated RNA is mixed with 4 μL of iScript™ Reverse transcription Supermix (5×) and […] of nuclease-free water. The mix is incubated in a PCR machine with the following program: 5 min at 25° C., 30 min at 42° C. and 5 min at 85° C. Newly synthesized cDNA is transferred in sterile 1.5-mL tubes and diluted in 2 μL of nuclease-free water. 18 μL per well of a qPCR machine (CFX-96™) mix is then added in a PCR plate for analysis.
Briefly, THP-1 cells were plated at 30 000 cells/well one day before transduction. HOXB4-WT recombinant protein (0.3, 0.9, or 1.5 μM; Example 14.1) was co-incubated with different concentrations of His-CM18-PTD4 ([…], 0.8 or 1 μM) and then exposed to THP-1 cells for 2.5 hours in the presence of serum. The cells were subjected to real time-PCR analysis as described in Example 14.2 to measure the mRNA levels of a target gene as a marker for HOXB4 activity, which was then normalized to the target gene mRNA levels detected in the negative control cells (no treatment), to obtain a “Fold over control” value. Total RNA levels (ng/μL) were also measured as a marker for cell viability.

HeLa cells [2] = experiment: GFP-NLS transduction efficiency, flow cytometry (Pos cells %, relative fluorescence intensity FL1-A); assay type: cell-based, Human; settings: Protocol B, 1 minute; for Mean % cells with GFP signal (±St. Dev.; n = 3), FIG. 29I: shuttle 20 μM, GFP-NLS 5 μM
[3] = Cell toxicity / % cell viability by flow cytometry (cells in total events v. untreated); assay type: cell-based, Human; settings: human, HeLa cells, HeLa; for viability at 1 min, 20 µM / viability at 10 s, 50 µM / viability at 1 min, 10 µM / viability at 2 min, 10 µM / viability at 5 min, 10 µM: Protocol B; for viability at 1 min, 20 µM: 1 minute; for viability at 10 s, 50 µM: FIG. 29A, shuttle 50 μM, 10 seconds; for viability at 1 min, 10 µM / viability at 2 min, 10 µM / viability at 5 min, 10 µM: shuttle 10 μM; for viability at 1 min, 10 µM: incubation 1 min; for viability at 2 min, 10 µM: incubation 2 min; for viability at 5 min, 10 µM: incubation 5 min
HeLa cells [4] = experiment: as above; assay type: cell-based, Human; settings: for effect of the variation of the shuttle on cell viability (in words): GFP-NLS 5 μM with 20 μM shuttle variant
THP-1 cells [5] = experiment: HOXB4-WT transduction, real-time PCR of target gene mRNA (Fold over control); assay type: cell-based, human
Procedure: as §1
Briefly, THP-1 cells were plated at 30 000 cells/well one day before transduction. […] The cells were subjected to real time-PCR analysis as described in Example 14.2 to measure the mRNA levels of a target gene as a marker for HOXB4 activity, which was then normalized to the target gene mRNA levels detected in the negative control cells (no treatment), to obtain a “Fold over control” value. Total RNA levels (ng/μL) were also measured as a marker for cell viability.
Briefly, THP-1 cells were plated at 30 000 cells/well one day before the first time course experiment. […] The cells were subjected to real time-PCR analysis as described in Example 14.2 to measure mRNA levels of a target gene as a marker for HOXB4 activity, which was then normalized to the target gene mRNA levels detected in the negative control cells (no treatment), to obtain a “Fold over control” value. Total RNA levels (ng/μL) were also measured as a marker for cell viability.
Briefly, THP-1 cells were plated at 30 000 cells/well one day before the first time course experiment. […] The cells were subjected to real time-PCR analysis as described in Example 14.2 to measure mRNA levels of a target gene as a marker for HOXB4 activity, which was then normalized to target gene mRNA levels detected in the negative control cells (no treatment), to obtain a “Fold over control” value. Total RNA levels (ng/μL) were also measured as a marker for cell viability. […]

[6] = Cell toxicity / % cell viability by flow cytometry (cells in total events v. untreated); assay type: cell-based, human; settings: human, THP-1 cells, THP-1, Protocol C, shuttle 1 μM, GFP-NLS 5 μM, read-out: Cell viability (%) (±St. Dev.; n = 3)
Source text: The fluorescence of GFP was quantified using flow cytometry (Accuri C6, Becton, Dickinson and Company (BD)). Untreated cells were used to establish a baseline in order to quantify the increased fluorescence due to the internalization of the fluorescent protein in treated cells. The percentage of cells with a fluorescence signal above the maximum fluorescence of untreated cells, “mean %” or “Pos cells (%)”, is used to identify positive fluorescent cells. “Relative fluorescence intensity (FL1-A)” corresponds to the mean of all fluorescence intensities from each cell with a fluorescent signal after fluorescent protein delivery with the shuttle agent. Also, the events scanned by flow cytometry corresponding to cells (size and granularity) were analyzed. The cellular toxicity (% cell viability) was monitored comparing the percentage of cells in the total events scanned of treated cells comparatively to untreated cells.

[7] = Cell viability (%) (±St. Dev.; n = 3), FIG. 29I, shuttle 20 μM, GFP-NLS 5 μM, read-out: Cell viability (%) (±St. Dev.; n = 3), FIG. 29I
[8] = HeLa, Protocol B, shuttle 50 μM, GFP-NLS 5 μM, 10 seconds
[9] = Cell viability (%) (±St. Dev.; n = 3), GFP-NLS 5 μM, read-out: Cell viability (%) (±St. Dev.; n = 3)
[10] = GFP-NLS 5 μM, read-out: Cell viability (%) (±St. Dev.; n = 3), FIG. 29G
[11] = GFP-NLS 5 μM, read-out: Cell viability (%) (±St. Dev.; n = 3)
[12] = GFP-NLS 5 μM, read-out: Cell viability (%) (±St. Dev.; n = 3), FIG. 29B

In the case of “HHHHHHKWKLFKKIGAVLKVLTTGYARAAARQARA [His-CM18-PTD4 alone]”, the “Total RNA in ng/μL (mean ± St. Dev)” value (THP-1 cells [1]; Table 14.1, shuttle 1 μM, HOXB4-WT 0 μM, 2.5 hours with serum) is reported as 252 ± 10.7 ng/µL, the “Total RNA in ng/μL (mean ± St. Dev)” value (THP-1 cells [1]; Table 14.2, shuttle 0.8 μM, HOXB4-WT 0 μM, exposure time 2.5 h, serum) is reported as 184 ± 6.0 ng/µL and the “Total RNA in ng/μL (mean ± St. Dev)” value (THP-1 cells [1]; Table 14.3, shuttle 0 μM, HOXB4-WT 0.3 μM, exposure time 2.5 h, serum) is reported as 260 ± 7.1 ng/µL. The “Total RNA in ng/μL (mean ± St. Dev)” value (THP-1 cells [1]; Table 14.4, shuttle 0 μM, HOXB4-WT 1.5 μM, exposure time 2.5 h, serum) was 303.9 ± 7.6 ng/µL.
With “HHHHHHKWKLFKKIGAVLKVLTTGYARAAARQARACCCCCC (cysteines drawn unpaired) [His-CM18-PTD4-6Cys]” the “Mean % cells with GFP signal (±St. Dev.; n = 3), FIG. 29I” value (“Mean % cells with GFP signal” below) (HeLa cells [2]) was 41.3 ± 4.28% and the viability at 1 min, 20 µM [3, 7] was 62 ± 5.76%.
With “HHHHHHKWKLFKKIGAVLKVLTTGYGRKKRRQRRR [His-CM18-TAT]” the “Cell viability (%) (±St. Dev.; n = 3), FIG. 29E” value (HeLa cells [4]; [8]) was 35.2 ± 5.7%, the viability at 1 h, 1 µM ([3]; Cell viability (%) (±St. Dev.; n = 3), FIG. 21B, GFP-NLS 5 μM, shuttle 1 μM, 1 hour, read-out: Cell viability (%) (±St. Dev.; n = 3), FIG. 21B) was 95 ± 3.55% and the viability at 1 h, 3 µM ([3]; Cell viability (%) (±St. Dev.; n = 3), FIG. 21B, GFP-NLS 5 μM, shuttle 3 μM, 1 hour, read-out: Cell viability (%) (±St. Dev.; n = 3), FIG. 21B) was 91 ± 5.18%. The viability at 1 h, 5 µM ([3]; Cell viability (%) (±St. Dev.; n = 3), FIG. 21B, GFP-NLS 5 μM, shuttle 5 μM, 1 hour, read-out: Cell viability (%) (±St. Dev.; n = 3), FIG. 21B) was 86 ± 4.59% and the viability at 10 s, 50 µM [3, 9] was 35.2 ± 5.7%.
For HOXB4-WT alone, the “Fold over control (mean ± St. Dev)” value (THP-1 cells [5]; Table 14.1, shuttle 0 μM, HOXB4-WT 1.5 μM, 2.5 hours with serum) was 4.3 ± 0.1, the “Fold over control (mean ± St. Dev)” value (THP-1 cells [5]; Table 14.2, shuttle 0 μM, HOXB4-WT 1.5 μM, exposure time 2.5 h, serum) was 3.4 ± 0.3 and the “Fold over control (mean ± St. Dev)” value (THP-1 cells [5]; Table 14.3, shuttle 0.8 μM, HOXB4-WT 0 μM, exposure time 2.5 h, serum) was 1 ± 0.14. The “Fold over control (mean ± St. Dev)” value (THP-1 cells [5]; Table 14.4, shuttle 0.8 μM, HOXB4-WT 0 μM, exposure time 2.5 h, serum) was 1 ± 0.11.
For “KWKLFKKIGAVLKVLTTGGGSGGGSGGGSGYARAAARQARA [CM18-L3-PTD4]”, the “effect of the variation of the shuttle on transduction efficiency (in words)” value (HeLa cells [2]; GFP-NLS 5 μM with 20 μM shuttle variant) was “did not result in a dramatic loss of transduction efficiency”, the “Mean % cells with GFP signal” value (HeLa cells [2]) was 39.0 ± 2.7% and the “effect of the variation of the shuttle on cell viability (in words)” value (from here on “effect … on cell viability (in words)”) (HeLa cells [4]; HeLa, 1 minute, Protocol B) was “increased cell viability”.
With “KWKLFKKIGAVLKVLTTGGGSGGGSYARAAARQARA [CM18-L2-PTD4]” the “effect … on cell viability (in words)” value (HeLa cells [4]; HeLa, 1 minute, Protocol B) was “increased cell viability” and the viability at 1 min, 20 µM [3, 7] was 64 ± 1.3%.
In the case of “KWKLFKKIGAVLKVLTTGGGSYARAAARQARA [CM18-L1-PTD4]”, the “effect … on cell viability (in words)” value (HeLa cells [4]; HeLa, 1 minute, Protocol B) is reported as “increased cell viability” and the viability at 1 min, 20 µM [3, 7] is reported as 50.1 ± 3.8%.
For “KWKLFKKIGAVLKVLTTGYARAAARQARA [CM18-PTD4]”, the “Cell viability (%) (±St. Dev.; n = 3), FIG. 29I” value (HeLa cells [4]; HeLa, Protocol B, shuttle 20 μM, GFP-NLS 5 μM, 1 minute) was 33.9 ± 3.7% and the viability at 1 min, 20 µM ([3]; cell viability, GFP-NLS 5 μM with 20 μM shuttle, Table 10.3e, read-out: cell viability) was 33.9%.
For “MHHHHHHKWKLFKKIGAVLKVLTTGYARAAARQARAC [Met-His-CM18-PTD4-Cys]”, the “Mean % cells with GFP signal” value (HeLa cells [2]) was 45.6 ± 3.88% and the viability at 1 min, 20 µM [3, 7] was 54.9 ± 3.45%.
For “YARAAARQARAWEAKLAKALAKALAKHLAKALAKALKACEA [PTD4-KALA]”, the “Cell viability (%) (±St. Dev.; n = 3), FIG. 29F” value (from here on “Cell viability (%) … FIG. 29F”) (HeLa cells [4]) was 91.4 ± 3.67%, the viability at 1 min, 10 µM [3, 10] was 96.2 ± 3% and the viability at 2 min, 10 µM [3, 10] was 75.3 ± 3.8%. For the same substance, the viability at 5 min, 10 µM [3, 10] was 82.4 ± 4.7% and the viability at 10 s, 50 µM [3, 11] was 91.4 ± 3.67%.
In the case of “YGRKKRRQRRRCKWKLFKKIGAVLKVLTTG [TAT-CM18]”, the “Cell viability (%) … FIG. 29F” value (HeLa cells [4]; [8]) is reported as 23.5 ± 1.1% and the viability at 10 s, 50 µM [3, 9] is reported as 23.5 ± 1.1%.
With “YGRKKRRQRRRCWEAKLAKALAKALAKHLAKALAKALKACEA (cysteines drawn unpaired) [TAT-KALA]” the viability at 15 s, 1 µM ([6]; incubation time 15 sec) was 84.6 ± 2.7%, the viability at 0.5 min, 1 µM ([6]; incubation time 30 sec) was 70.3 ± 3.2% and the viability at 1 min, 1 µM ([6]; incubation time 60 sec) was 82.7 ± 1.4%. The viability at 2 min, 1 µM ([6]; incubation time 120 sec) was 46.3 ± 4.9%, the “Cell viability (%) … FIG. 29F” value (HeLa cells [4]; [8]) was 95.6 ± 4.3% and the viability at 1 min, 10 µM [3, 12] was 93.5 ± 2.7%. It also gave a viability at 2 min, 10 µM [3, 12] of 92.1 ± 3.1%, a viability at 5 min, 10 µM [3, 12] of 86 ± 4.4% and a viability at 10 s, 50 µM [3, 11] of 95.6 ± 4.3%.
